Assay results reported in patent US20220153746A1, “NITROGEN OXIDE-DONATING PDE-5 AND/OR PDE-6 INHIBITOR COMPOUNDS, AND USES THEREOF” (ILDONG PHARMACEUTICAL CO., LTD., priority 2020, published 2022).
Like-named read-outs stand apart in the source and are kept apart here.

Assay: TD Phase (Groups 1 and 3): plasma and ocular tissue concentrations and pharmacokinetics of Compound 18 and its metabolite Compound 4 after once daily ocular instillation of Compound 18 nanosuspension for 7 days
Format: in vivo, New Zealand white rabbits
Conditions: for Cmax / Tmax / half-life / AUC(0-t): topical or ocular; for AUC(0-t): read-out: AUC0-8; for Metabolite/parent AUC ratio (Compound 4 vs Compound 18): TD phase
Text: This example illustrates the procedures and results for the levels of Compound 18 and its metabolite Compound 4 in plasma and ocular tissues of normotensive rabbits following ocular instillation of Compound 18 once daily for 7 consecutive days.
Twenty five (25) male New Zealand white rabbits were divided into 5 groups of varying amounts of animals per group.
The Test article, Compound 18 was formulated as a 2% nanosuspension in DI water containing 0.2% PS80 (polyoxyethylenesorbitan, monooleate (Tween 80)) and 0.4% HPMC (hydroxypropylmethylcellulose) at pH 6.77. Referred to herein as “Compound 18 nanosuspension.”
The study consisted of three groups (Groups 1-3) of 19 male rabbits (NZW) that underwent once daily morning ocular installation (1 eyedrop) for 7 consecutive days (Day 0-6). Groups 4-5 each consisted of 3 male rabbits (NZW) that were not dosed.
Blood samples (1 mL) were collected from the jugular vein at the intervals set out below for each group. The samples were then inverted several times following collection and held on wet ice until centrifuged. Samples were centrifuged within 60 minutes of collection under refrigeration (set at 5° C. for 10 minutes at 2000 g.
Group 1 (Pilot Study, terminal blood collection): blood was collected from 3 animals at 1 hour post day 7 dose of Compound 18 nanosuspension.
Group 3 (TD Phase, terminal blood collection): blood was collected from 3 animals at 0.5 hour, 3 animals at 2 hours, 3 animals at 4 hours, and 3 animals at 8 hours post day 7 dose of Compound 18 nanosuspension.
Group 1 (Pilot Study): 3 animals were terminated at 1 hour post Day 7 dose of Compound 18 nanosuspension. Following blood collection and termination, ocular tissues (aqueous humor, vitreous humor, cornea, iris/ciliary body, lens, optic nerve, retina, sclera/choroid, and trabecular meshwork) were collected from each animal and the tissue weights were recorded. Note: sclera and choroid were collected together. Iris and ciliary body were collected together.
Group 3 (TD Phase): 3 animals were terminated at 0.5 hour, 3 animals at 2 hours, 3 animals at 4 hours, and 3 animals at 8 hours post Day 7 dose of Compound 18 nanosuspension. Following blood collection and termination, ocular tissues (aqueous humor, vitreous humor, cornea, iris/ciliary body, lens, optic nerve, retina, sclera/choroid, and trabecular meshwork) were collected from each animal and the tissue weights were recorded. Note: sclera and choroid were collected together. Iris and ciliary body were collected together.
Plasma and tissue samples from treated animals (Groups 1-3) were analyzed for Compound 18 and its metabolite Compound 4 concentrations by LC-MS/MS.
Pharmacokinetic analysis was conducted using WinNonlin Version 6.2.1 (Pharsight, Mountain View, Calif.), operating as a validated software system. Noncompartmental analysis was conducted using the extravascular administration model for ocular instillation dosing.
The peak plasma and ocular tissue concentration, time to achieve peak plasma and ocular tissue concentration, half-life, and area under the plasma and ocular tissue concentration-time curve (Cmax, Tmax, T1/2, and AUC) were calculated from the TD phase combined with the pilot study mean animal plasma and ocular tissue concentrations for each sampling time/dose group for Compound 18 and its metabolite Compound 4.
BA Assay: Quantitation Range 0.05 to 100 ng/mL for Compound 18, 0.15 to 100 ng/mL for Compound 4.
3. Pipet 50 μL of each type of pre-spiked ocular tissue samples (AH/VH) for QC samples, 50 μL of incurred aqueous humor, and vitreous humor sample (if applicable) into a 96 well plate.
Ocular Tissues Homogenate Preparation: Incurred rabbit ocular tissues were weighed in Genogrinder tubes (plastic tubes with small beads) at the time of removal from the animal and stored frozen (<−70° C.) until analysis. The rabbit incurred ocular tissues were thawed on wet ice. […]

[1] = male, New Zealand white, rabbit, 0.8 mg/kg/day, optic nerve, Day 7, from mean concentrations
[2] = male, New Zealand white, rabbit, 0.8 mg/kg/day, plasma, Day 7, from mean concentrations
[3] = male, New Zealand white, rabbit, 0.8 mg/kg/day, retina, Day 7, from mean concentrations
[4] = male, New Zealand white, rabbit, 0.8 mg/kg/day, sclera/choroid, Day 7, from mean concentrations
[5] = male, New Zealand white, rabbit, 0.8 mg/kg/day, trabecular meshwork, Day 7, from mean concentrations
[6] = male, New Zealand white, rabbit, 0.8 mg/kg/day, vitreous humor, Day 7, from mean concentrations
[7] = male, New Zealand white, rabbit, Aqueous Humor, Day 7, Compound 18 0.8 mg/kg ocular instillation once daily, Groups 1 and 3
[8] = male, New Zealand white, rabbit, Cornea, Day 7, Compound 18 0.8 mg/kg ocular instillation once daily, Groups 1 and 3
[9] = male, New Zealand white, rabbit, Iris/Ciliary Body, Day 7, Compound 18 0.8 mg/kg ocular instillation once daily, Groups 1 and 3
[10] = male, New Zealand white, rabbit, Lens, Day 7, Compound 18 0.8 mg/kg ocular instillation once daily, Groups 1 and 3
[11] = male, New Zealand white, rabbit, Optic Nerve, Day 7, Compound 18 0.8 mg/kg ocular instillation once daily, Groups 1 and 3
[12] = male, New Zealand white, rabbit, Plasma, Day 7, Compound 18 0.8 mg/kg ocular instillation once daily, Groups 1 and 3
[13] = male, New Zealand white, rabbit, Retina, Day 7, Compound 18 0.8 mg/kg ocular instillation once daily, Groups 1 and 3
[14] = male, New Zealand white, rabbit, Sclera/Choroid, Day 7, Compound 18 0.8 mg/kg ocular instillation once daily, Groups 1 and 3
[15] = male, New Zealand white, rabbit, Trabecular Meshwork, Day 7, Compound 18 0.8 mg/kg ocular instillation once daily, Groups 1 and 3
[16] = male, New Zealand white, rabbit, Vitreous Humor, Day 7, Compound 18 0.8 mg/kg ocular instillation once daily, Groups 1 and 3

With `CCCc1nn(C)c2c(=O)[nH]c(-c3cc(S(=O)(=O)N4CC(CCCO)C4)ccc3OCC)nc12` [Compound 4, 5-(2-ethoxy-5-((3-(3-hydroxypropyl)azetidin-1-yl)sulfonyl)phenyl)-1-methyl-3-propyl-1,6-dihydro-7H-pyrazolo[4,3-d]pyrimidin-7-one] the Cmax [1] was 40.2 ng/g, the Tmax [1] was 1 h and the half-life [1] was 2.93 h. For the same compound, the Cmax [2] was 1.02 ng/mL, the Tmax [2] was 0.5 h and the half-life [2] was 0.958 h. For the same compound, the AUC(0-t) [2] was 1.57 ng·h/mL, the Cmax [3] was 50.9 ng/g and the Tmax [3] was 2 h. For the same compound, the half-life [3] was 1.93 h, the Cmax [4] was 303 ng/g and the Tmax [4] was 4 h. The half-life [4] was 1.74 h, the Cmax [5] was 204 ng/g and the Tmax [5] was 1 h. The half-life [5] was 2.2 h, the Cmax [6] was 2.32 ng/mL and the Tmax [6] was 1 h. The half-life [6] was 1.72 h, the AUC(0-t) [6] was 9.9 ng·h/mL and the Cmax [7] was 124 ng/mL. For the same compound, the Tmax [7] was 1 h, the half-life [7] was 1.95 h and the AUC(0-t) [7] was 314 ng·h/mL. The Cmax [8] was 3600 ng/g, the Tmax [8] was 1 h and the half-life [8] was 2.63 h. For the same compound, the Cmax [9] was 980 ng/g, the Tmax [9] was 1 h and the half-life [9] was 2.11 h. The Cmax [10] was 18.1 ng/g, the Tmax [10] was 1 h and the half-life [10] was 2.25 h. The Cmax [11] was 40.2 ng/g, the Tmax [11] was 1 h and the half-life [11] was 2.93 h. For the same compound, the Cmax [12] was 1.02 ng/mL, the Tmax [12] was 0.5 h and the half-life [12] was 0.958 h. The AUC(0-t) [12] was 1.57 ng·h/mL, the Cmax [13] was 50.9 ng/g and the Tmax [13] was 2 h. For the same compound, the half-life [13] was 1.93 h, the Cmax [14] was 303 ng/g and the Tmax [14] was 4 h. It also gave a half-life [14] of 1.74 h, a Cmax [15] of 204 ng/g and a Tmax [15] of 1 h. It also gave a half-life [15] of 2.2 h, a Cmax [16] of 2.32 ng/mL and a Tmax [16] of 1 h. It also gave a half-life [16] of 1.72 h, an AUC(0-t) [16] of 9.9 ng·h/mL and a concentration at 8 h (male, New Zealand white, rabbit, trabecular meshwork, other: ocular instillation, 0.8 mg/kg/day, TD Phase, Group 3, 8 h, Mean, read-out: Final Compound 4 Trabecular Meshwork Conc.) of 13.9 ng/g. The AUC0-8 (optic nerve, Day 7, from mean concentrations) was 159 ng·h/g, the “Metabolite/parent AUC ratio (Compound 4 vs Compound 18)” value (from here on “Metabolite/parent AUC ratio”) (optic nerve) was 0.133 and the AUC0-8 (retina, Day 7, from mean concentrations) was 213 ng·h/g. For the same compound, the “Metabolite/parent AUC ratio” value (retina) was 1.34, the AUC0-8 (sclera/choroid, Day 7, from mean concentrations) was 1494 ng·h/g and the “Metabolite/parent AUC ratio” value (sclera/choroid) was 1.32. The AUC0-8 (trabecular meshwork, Day 7, from mean concentrations) was 533 ng·h/g and the “Metabolite/parent AUC ratio” value (trabecular meshwork) was 18.0.
